The record followed here is patent US8841309B2, “Substituted pyrazines and their use in the treatment of disease” (Boehringer Ingelheim International GmbH, priority 2012, dated 2014).

Where a name gives a salt, the structure may show the parent alone.

The experiment concerns the target T1, ENaC (Mus musculus, UniProt Q61180+Q9WU38+Q9WU39).
T1 construct: Mouse kidney M-1 cells were cultivated in DMEM containing 5% FCS and 5 μM dexamethasone; endogenous in cells; host or cells: mouse kidney M-1 cells
T1 sequence (Q61180 1-699): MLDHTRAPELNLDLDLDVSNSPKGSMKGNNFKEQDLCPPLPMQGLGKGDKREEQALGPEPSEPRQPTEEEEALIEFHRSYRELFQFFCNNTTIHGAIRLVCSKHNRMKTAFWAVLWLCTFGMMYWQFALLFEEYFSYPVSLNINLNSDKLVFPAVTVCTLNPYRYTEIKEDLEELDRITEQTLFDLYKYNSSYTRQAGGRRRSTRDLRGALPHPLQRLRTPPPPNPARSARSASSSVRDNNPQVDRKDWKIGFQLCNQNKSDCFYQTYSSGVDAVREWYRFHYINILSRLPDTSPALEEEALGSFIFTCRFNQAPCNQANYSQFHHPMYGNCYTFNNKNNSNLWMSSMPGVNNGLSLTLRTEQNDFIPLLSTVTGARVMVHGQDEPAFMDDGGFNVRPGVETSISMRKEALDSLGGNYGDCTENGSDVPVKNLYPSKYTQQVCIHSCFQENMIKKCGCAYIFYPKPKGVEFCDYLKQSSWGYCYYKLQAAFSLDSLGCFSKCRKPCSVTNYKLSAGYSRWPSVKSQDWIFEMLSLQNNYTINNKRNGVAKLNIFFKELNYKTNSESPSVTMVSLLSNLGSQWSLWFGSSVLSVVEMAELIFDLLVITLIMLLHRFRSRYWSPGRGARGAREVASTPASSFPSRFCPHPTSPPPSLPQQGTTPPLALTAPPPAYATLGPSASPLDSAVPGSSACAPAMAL
T1 sequence (Q9WU38 1-638): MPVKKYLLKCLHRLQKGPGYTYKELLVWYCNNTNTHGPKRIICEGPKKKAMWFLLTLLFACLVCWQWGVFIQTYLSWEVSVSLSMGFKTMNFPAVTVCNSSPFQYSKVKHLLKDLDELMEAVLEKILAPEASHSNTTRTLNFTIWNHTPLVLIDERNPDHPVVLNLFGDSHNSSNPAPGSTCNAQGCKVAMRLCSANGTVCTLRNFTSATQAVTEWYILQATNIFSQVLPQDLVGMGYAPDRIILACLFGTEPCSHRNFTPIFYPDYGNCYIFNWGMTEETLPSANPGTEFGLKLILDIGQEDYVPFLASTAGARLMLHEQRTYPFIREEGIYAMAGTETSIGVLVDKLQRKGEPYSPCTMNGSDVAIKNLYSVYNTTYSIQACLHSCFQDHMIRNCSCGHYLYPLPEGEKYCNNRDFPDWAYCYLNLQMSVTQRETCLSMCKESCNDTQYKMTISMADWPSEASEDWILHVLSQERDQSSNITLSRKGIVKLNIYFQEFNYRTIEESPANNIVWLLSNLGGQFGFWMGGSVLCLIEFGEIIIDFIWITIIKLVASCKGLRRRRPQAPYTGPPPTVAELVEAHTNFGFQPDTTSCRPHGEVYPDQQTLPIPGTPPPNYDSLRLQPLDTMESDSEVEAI
T1 sequence (Q9WU39 1-655): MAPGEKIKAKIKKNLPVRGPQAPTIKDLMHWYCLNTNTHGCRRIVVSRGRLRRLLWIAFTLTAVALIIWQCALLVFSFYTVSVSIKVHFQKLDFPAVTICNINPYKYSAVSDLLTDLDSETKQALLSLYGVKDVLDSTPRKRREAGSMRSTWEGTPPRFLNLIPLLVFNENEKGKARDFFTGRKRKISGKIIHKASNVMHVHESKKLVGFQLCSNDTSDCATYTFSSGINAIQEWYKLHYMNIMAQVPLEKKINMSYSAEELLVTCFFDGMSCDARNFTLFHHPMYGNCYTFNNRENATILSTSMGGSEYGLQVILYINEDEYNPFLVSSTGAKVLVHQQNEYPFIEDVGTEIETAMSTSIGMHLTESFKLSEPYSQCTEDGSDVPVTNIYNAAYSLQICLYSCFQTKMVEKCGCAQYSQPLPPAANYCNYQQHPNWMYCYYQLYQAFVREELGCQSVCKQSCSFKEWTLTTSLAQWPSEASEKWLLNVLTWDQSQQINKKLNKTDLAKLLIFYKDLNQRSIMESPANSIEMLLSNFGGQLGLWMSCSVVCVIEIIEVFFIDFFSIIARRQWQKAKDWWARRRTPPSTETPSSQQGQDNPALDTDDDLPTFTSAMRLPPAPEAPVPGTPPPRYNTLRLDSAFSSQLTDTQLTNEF
The experiment is described as follows: Ussing chamber: short circuit current (I_sc) in mouse kidney M-1 cells, amiloride-sensitive. Format: cell-based. To be noted: compound applied to apical solution, 37° C. The method, then: Ussing Chamber: Mouse kidney M-1 cells were cultivated in DMEM containing 5% FCS and 5 μM dexamethasone for 10 to 12 days on polyester transwell filters. Filters were inserted into a teflon-coated well-plate which fit into the in-house ussing chamber system. Prior to measurement the medium of M-1 cells was replaced with Caco-2 transport buffer (Invitrogen, Germany). During measurements, the Ussing chamber temperature was kept at 37° C. Short circuit currents (I_sc) were measured in the voltage-clamp mode using an in-house built amplifier (Boehringer Ingelheim, Biberach) with the software package Lab View for data acquisition and analysis. The transepithelial electrical resistance (TEER) was determined by the application of voltage steps of ±5 mV every 5 sec. Compounds were administered at a final concentration of 3 μM or at increasing concentrations (1-3-10 μM) to the apical solution. At the end of each experiment the amiloride sensitive I_SC was measured by adding 3 μM amiloride to the apical compartment. Results are expressed as inhibition in percent of the amiloride effect or as IC50.
The IC50 is the concentration that gives 50% inhibition. A higher IC50 goes with a need for much substance. As to `COC(=O)c1ccc(CCNC(=O)C[N+]23CCC(CC2)[C@H](NC(N)=NC(=O)c2nc(Cl)c(N)nc2N)C3)cc1` [Example 61], 2 nM corresponded to half-maximal inhibition (IC50).
Then `NC(=NC(=O)c1nc(Cl)c(N)nc1N)N[C@@H]1C[N+]2(CC(=O)N3CCN(c4ccccn4)CC3)CCC1CC2` [Example 62], with 20 nM; and `N#Cc1ccc(CNC(=O)C[N+]23CCC(CC2)[C@H](NC(N)=NC(=O)c2nc(Cl)c(N)nc2N)C3)cc1` [Example 63], with 30 nM.
As for `CCOC(=O)N1CCC(NC(=O)C[N+]23CCC(CC2)[C@H](NC(N)=NC(=O)c2nc(Cl)c(N)nc2N)C3)CC1` [Example 64], the figure is 76 nM.
Then `CN(CCc1ccccc1)C(=O)C[N+]12CCC(CC1)[C@H](NC(N)=NC(=O)c1nc(Cl)c(N)nc1N)C2` [Example 65], with 2 nM; and `NC(=NC(=O)c1nc(Cl)c(N)nc1N)N[C@@H]1C[N+]2(CC(=O)N3CCN(c4ncccn4)CC3)CCC1CC2` [Example 66], with 22 nM; and `CC(C)(C)OC(=O)C1CCN(C(=O)C[N+]23CCC(CC2)[C@H](NC(N)=NC(=O)c2nc(Cl)c(N)nc2N)C3)CC1` [Example 67, (S)-1-[2-(4-tert-butoxycarbonyl-piperidin-1-yl)-2-oxo-ethyl]-3-[N′-(3,5-diamino-6-chloro-pyrazine-2-carbonyl)-guanidino]-1-azonia-bicyclo[2.2.2]octane; chloride], with 40 nM.
Turning to `CCNC(=O)C(c1ccccc1)[N+]12CCC(CC1)[C@H](NC(=N)NC(=O)c1nc(Cl)c(N)nc1N)C2` (stereo partly drawn) [Example 68.1, (S)-3-[N′-(3,5-Diamino-6-chloro-pyrazine-2-carbonyl)-guanidino]-1-(ethylcarbamoyl-phenyl-methyl)-1-azonia-bicyclo[2.2.2]octane bromide], half-maximal inhibition (IC50) was put at 18 nM.
In turn, `CC(C)=CC[N+]12CCC(CC1)[C@H](N/C(N)=N/C(=O)c1nc(Cl)c(N)nc1N)C2` [Example 69, (S)-3-[N′-(3,5-Diamino-6-chloro-pyrazine-2-carbonyl)-guanidino]-1-(3-methyl-but-2-enyl)-1-azoniabicyclo[2.2.2]octane chloride] came in with an IC50 of 188 nM.
Then `C[N+]1(Cc2ccccc2)CCC(N/C(N)=N/C(=O)c2nc(Cl)c(N)nc2N)CC1` (stereo not shown) [Example 70, 1-Benzyl-4-[N′-(3,5-diamino-6-chloro-pyrazine-2-carbonyl)-guanidino]-1-methyl-piperidinium chloride], with 106 nM.
Then `COC(=O)c1ccc(C[N+]2(C)CCC(NC(N)=NC(=O)c3nc(Cl)c(N)nc3N)CC2)cc1` (stereo not shown) [Example 70.1], with 64 nM.
`CC[N+]1(Cc2ccccc2)CCC(NC(N)=NC(=O)c2nc(Cl)c(N)nc2N)CC1` (stereo not shown) [Example 70.2] showed an IC50 of 52 nM.
Then `CCNC(=O)C[N+]1(C)CCC[C@@H](NC(N)=NC(=O)c2nc(Cl)c(N)nc2N)C1` (stereo partly shown) [Example 70.3], with 260 nM.
Compound `CC[N+]1(CC(=O)Nc2cccc(F)c2)CCC(NC(N)=NC(=O)c2nc(Cl)c(N)nc2N)CC1` (stereo not shown) [Example 70.7] came in with an IC50 of 31 nM.
As for `C[N+]1(Cc2ccccc2)CC[C@H](NC(N)=NC(=O)c2nc(Cl)c(N)nc2N)C1` (stereo partly shown) [Example 71.2], the figure is 113 nM; as for `CN(C(=O)C[N+]1(C)CCC(NC(N)=NC(=O)c2nc(Cl)c(N)nc2N)CC1)c1ccccc1` (stereo not shown) [Example 72.1], 137 nM.
Take `CN(Cc1ccccc1)C(=O)C[N+]1(C)CCC(NC(N)=NC(=O)c2nc(Cl)c(N)nc2N)CC1` (stereo not shown) [Example 72.2]: the IC50 worked out at 76 nM.
As for `COC(=O)c1ccccc1NC(=O)C[N+]1(C)CCC(NC(N)=NC(=O)c2nc(Cl)c(N)nc2N)CC1` (stereo not shown) [Example 72.3], the figure is 22 nM.
Then `N=C(NC(=O)c1nc(Cl)c(N)nc1N)N[C@@H]1C[N+]2(CC(=O)N[C@@H](Cc3ccccc3)C(=O)O)CCC1CC2` [Example 73, (S)-1-[((S)-1-Carboxy-2-phenyl-ethylcarbamoyl)-methyl]-3-[N′-(3,5-diamino-6-chloro-pyrazine-2-carbonyl)-guanidino]-1-azonia-bicyclo[2.2.2]octane chloride hydrochloride], with 4 nM; and `N=C(NC(=O)c1nc(Cl)c(N)nc1N)N[C@@H]1C[N+]2(CC(=O)N[C@H](Cc3ccccc3)C(=O)O)CCC1CC2` [Example 73.1, (S)-1-[((R)-1-Carboxy-2-phenyl-ethylcarbamoyl)-methyl]-3-[N′-(3,5-diamino-6-chloro-pyrazine-2-carbonyl)-guanidino]-1-azonia-bicyclo[2.2.2]octane; chloride hydrochloride], with 197 nM.
As for `N=C(NC(=O)c1nc(Cl)c(N)nc1N)N[C@@H]1C[N+]2(CC(=O)N3CCC(C(=O)O)CC3)CCC1CC2` [Example 73.2, (S)-1-[2-(4-Carboxy-piperidin-1-yl)-2-oxo-ethyl]-3-[N′-(3,5-diamino-6-chloro-pyrazine-2-carbonyl)-guanidino]-1-azonia-bicyclo[2.2.2]octane chloride hydrochloride], the figure is 269 nM.
For `NC(=NC(=O)c1nc(Cl)c(N)nc1N)N[C@@H]1C[N+]2(CC(=O)NCC3(c4ccccc4)CCOCC3)CCC1CC2` [Example 74], the half-maximal inhibitory concentration (IC50) was 15 nM.
As for `NC(=NC(=O)c1nc(Cl)c(N)nc1N)NC1C[N+]2(CC(=O)NC3CCC(c4ccccc4)CC3)CCC1CC2` (stereo not shown) [Example 75], the figure is 22 nM.
Then `NC(=NC(=O)c1nc(Cl)c(N)nc1N)N[C@@H]1C[N+]2(CC(=O)NCC3CCOCC3)CCC1CC2` [Example 76], with 39 nM.
Then `CCOC(=O)c1cccc(CCNC(=O)C[N+]23CCC(CC2)[C@H](NC(N)=NC(=O)c2nc(Cl)c(N)nc2N)C3)c1` [Example 77], with 43 nM.
